Where two headings read alike, the source gives them in different places.
Assay: 1st phase clinical test: pharmacokinetics of petasin in serum after single oral administration of tablets containing butterbur extract (open crossover; enzyme immunoassay)
Assay type: in vivo, human (clinically healthy men)
Conditions: for concentration at 0.25 h: 0.25 h p.a.; for concentration at 0.5 h: 0.5 h p.a.; for concentration at 0.75 h: 0.75 h p.a.; for concentration at 1 h: 1 h p.a.; for concentration at 1.17 h: 1.17 h p.a. (1.167 in Table 3); for concentration at 1.5 h: 1.5 h p.a.; for concentration at 1.833 h: 1.833 h p.a.; for concentration at 2.167 h: 2.167 h p.a.; for concentration at 2.5 h: 2.5 h p.a.; for concentration at 3 h: 3 h p.a.; for concentration at 4 h: 4 h p.a.; for concentration at 5 h: 5 h p.a.; for concentration at 6 h: 6 h p.a.; for concentration at 8 h: 8 h p.a.; for concentration at 12 h: 12 h p.a.; for concentration at 24 h: 24 h p.a.; for Cmax / MRT / Tmax / half-life / AUC / AUC(0-t): single oral, mean ± SD; for AUC: read-out: AUC0-i; for AUC(0-t): read-out: AUC0-t(last)
Description: Petasin ovalbumin is adsorptively bound to polystyrene microtitration plates in a concentration of […] in 0.1 M carbonate buffer, pH=9.5, (100 μl/well) for 16 hours at 4° C. and thereupon sucked off. After washing it two times with 300 μl/well washing buffer (PBS, 0.1% Tween 20) it is blocked for 2 hours at room temperature with 150 μl/well blocking solution (0.6% gelatine, 0.02% […] in PBS) and subsequently washed three times with washing buffer.
50 μl of the serum sample to be tested or the respective standard (1:4 dilution in a sample buffer (PBS, 1% BSA, 0.1% Tween 20, 0.01% thiomersal) and 50 μL of an optimized anti-serum dilution in a sample buffer are simultaneously incubated with shaking for 1 hour at room temperature. Subsequently, the microtitration plate is washed three times with 300 μl/well of washing buffer and incubated for 30 min. at room temperature with 100 μl of anti-rabbit immunoglobulin peroxidase conjugate, diluted in sample buffer, and once more washed as above. Thereupon, it is incubated for 10 min. with 100 μl of a substrate solution ready for use (3.3′, 5.5′-tetramethyl benzidine) per well and the reaction is stopped by adding 100 μl/well of 0.5 M sulfuric acid. The evaluation is carried out at 450 nm in a microtitration plate reader.
In a 1st phase of the clinical test for determining the pharmacokinetic parameters of tablets containing butterbur extract was a single oral administrations of 2 or 4 tablets to 24 clinically healthy men at the age between 18 and 40 years.
The open, crossover test was chosen as method, single administration of each dose in a randomized order with an interval of at least 7 days between the administrations.
Model-independent pharmacokinetic parameters for petasin Statistical methods:
ANOVA, ANOVAlog, Wilcoxon-Mann-Whitney test, Wilcoxon-sign order test

[1] = male, human, serum, oral, 4 tablets, after administering 4 tablets, read-out: Petasin serum concentration Max.
[2] = male, human, serum, oral, 4 tablets, after administering 4 tablets, read-out: Petasin serum concentration Mean
[3] = male, human, serum, oral, 4 tablets, after administering 4 tablets, read-out: Petasin serum concentration Median
[4] = male, human, serum, oral, 4 tablets, after administering 4 tablets, read-out: Petasin serum concentration Min.

concentration at 0 h (male, human, serum, oral, 4 tablets, after administering 4 tablets, 0 h p.a., read-out: Petasin serum concentration Min.): 0 ng/mL | concentration at 0.25 h [1]: 14.9 ng/mL | concentration at 0.25 h [2]: 4.2 ng/mL | concentration at 0.25 h [3]: 3.2 ng/mL | concentration at 0.25 h [4]: 1 ng/mL | concentration at 0.5 h [1]: 96.2 ng/mL | concentration at 0.5 h [2]: 21.2 ng/mL | concentration at 0.5 h [3]: 13.7 ng/mL | concentration at 0.5 h [4]: 1.3 ng/mL | concentration at 0.75 h [1]: 91.8 ng/mL | concentration at 0.75 h [2]: 28.7 ng/mL | concentration at 0.75 h [3]: 23 ng/mL | concentration at 0.75 h [4]: 2.5 ng/mL | concentration at 1 h [1]: 100 ng/mL | concentration at 1 h [2]: 36.6 ng/mL | concentration at 1 h [3]: 38.1 ng/mL | concentration at 1 h [4]: 7.8 ng/mL | concentration at 1.17 h [1]: 100 ng/mL | concentration at 1.17 h [2]: 47.3 ng/mL | concentration at 1.17 h [3]: 43.6 ng/mL | concentration at 1.17 h [4]: 7.5 ng/mL | concentration at 1.5 h [1]: 90.7 ng/mL | concentration at 1.5 h [2]: 40.8 ng/mL | concentration at 1.5 h [3]: 32.4 ng/mL | concentration at 1.5 h [4]: 12.2 ng/mL | concentration at 1.833 h [1]: 100 ng/mL | concentration at 1.833 h [2]: 32 ng/mL | concentration at 1.833 h [3]: 26.8 ng/mL | concentration at 1.833 h [4]: 13.8 ng/mL | concentration at 2.167 h [1]: 76.1 ng/mL | concentration at 2.167 h [2]: 28.9 ng/mL | concentration at 2.167 h [3]: 27.5 ng/mL | concentration at 2.167 h [4]: 11.4 ng/mL | concentration at 2.5 h [1]: 40.9 ng/mL | concentration at 2.5 h [2]: 24.3 ng/mL | concentration at 2.5 h [3]: 26.1 ng/mL | concentration at 2.5 h [4]: 8.4 ng/mL | concentration at 3 h [1]: 49 ng/mL | concentration at 3 h [2]: 17.9 ng/mL | concentration at 3 h [3]: 14.6 ng/mL | concentration at 3 h [4]: 7.2 ng/mL | concentration at 4 h [1]: 20.8 ng/mL | concentration at 4 h [2]: 9.5 ng/mL | concentration at 4 h [3]: 8.1 ng/mL | concentration at 4 h [4]: 2.9 ng/mL | concentration at 5 h [1]: 81.4 ng/mL | concentration at 5 h [2]: 12.4 ng/mL | concentration at 5 h [3]: 7.3 ng/mL | concentration at 5 h [4]: 3.2 ng/mL | concentration at 6 h [1]: 14.7 ng/mL | concentration at 6 h [2]: 5.8 ng/mL | concentration at 6 h [3]: 5 ng/mL | concentration at 6 h [4]: 1.6 ng/mL | concentration at 8 h [1]: 15.7 ng/mL | concentration at 8 h [2]: 3.9 ng/mL | concentration at 8 h [3]: 3.1 ng/mL | concentration at 8 h [4]: 1.4 ng/mL | concentration at 12 h [1]: 5.1 ng/mL | concentration at 12 h [2]: 2.7 ng/mL | concentration at 12 h [3]: 2.5 ng/mL | concentration at 12 h [4]: 1.3 ng/mL | concentration at 24 h [1]: 2.3 ng/mL | concentration at 24 h [2]: 1.3 ng/mL | concentration at 24 h [3]: 1 ng/mL | concentration at 24 h [4]: 1 ng/mL | Cmax (male, human, serum, 2 tablets): 25.5 ± 14.8 ng/mL | MRT (male, human, serum, 2 tablets): 7.32 ± 3.74 h | Tmax (male, human, serum, 2 tablets): 1.62 ± 0.499 h | half-life (male, human, serum, 2 tablets): 7.16 ± 4.61 h | AUC (male, human, serum, 2 tablets): 79.7 ± 42.3 ng·h/mL | AUC(0-t) (male, human, serum, 2 tablets): 65.3 ± 35.6 ng·h/mL | Cmax (male, human, serum, 4 tablets): 58.1 ± 26.7 ng/mL | MRT (male, human, serum, 4 tablets): 6.74 ± 2.47 h | Tmax (male, human, serum, 4 tablets): 1.61 ± 0.926 h | half-life (male, human, serum, 4 tablets): 7.62 ± 3.34 h | AUC (male, human, serum, 4 tablets): 168 ± 73.4 ng·h/mL | AUC(0-t) (male, human, serum, 4 tablets): 151 ± 68.2 ng·h/mL
SMILES: C=C(C)C1CC2(C)C(=CC1=O)CCC(OC(=O)/C(C)=C\C)C2C (stereo not drawn) [petasin]
Resorption (single oral administration of 2 or 4 tablets): takes quickly place depending on the dose

Reference: patent US20050042701A1, “Anti-petasin antibodies, methods for the production thereof and their use” (priority 1998, published 2005)
